Data: ChEMBL document CHEMBL5143665, “Discovery and preclinical evaluations of WX-0593, a novel ALK inhibitor targeting crizotinib-resistant mutations” (Bioorg Med Chem Lett, 2022)
Calls of active or inactive are those of the source. No cut-off for these calls is given here.

Legend:
[1] = test system: BaF3; assay: Antiproliferative activity against crizotinib resistant mouse BaF3 cells expressing EML4 fused ALK F1174C mutant assessed as reduction in cell viability incubated for 72 hrs by Celltitre-Glo luminescent assay; type: functional, cell-based; settings: BaF3, 72 h
[2] = test system: BaF3; assay: Antiproliferative activity against crizotinib resistant mouse BaF3 cells expressing EML4 fused ALK I1171S mutant assessed as reduction in cell viability incubated for 72 hrs by Celltitre-Glo luminescent assay; type: functional, cell-based; settings: BaF3, 72 h
[3] = test system: BaF3; assay: Antiproliferative activity against crizotinib resistant mouse BaF3 cells expressing EML4 fused ALK T1151Tins mutant assessed as reduction in cell viability incubated for 72 hrs by Celltitre-Glo luminescent assay; type: functional, cell-based; settings: BaF3, 72 h
[4] = test system: BaF3; assay: Antiproliferative activity against crizotinib resistant mouse BaF3 cells expressing EML4 fused ALK F1174V mutant assessed as reduction in cell viability incubated for 72 hrs by Celltitre-Glo luminescent assay; type: functional, cell-based; settings: BaF3, 72 h
[5] = test system: BaF3; assay: Antiproliferative activity against crizotinib resistant mouse BaF3 cells expressing EML4 fused ALK V1180L mutant assessed as reduction in cell viability incubated for 72 hrs by Celltitre-Glo luminescent assay; type: functional, cell-based; settings: BaF3, 72 h
[6] = test system: BaF3; assay: Antiproliferative activity against crizotinib resistant mouse BaF3 cells expressing EML4 fused ALK L1152R mutant assessed as reduction in cell viability incubated for 72 hrs by Celltitre-Glo luminescent assay; type: functional, cell-based; settings: BaF3, 72 h
[7] = test system: BaF3; assay: Antiproliferative activity against crizotinib resistant mouse BaF3 cells expressing EML4 fused ALK L1152P mutant assessed as reduction in cell viability incubated for 72 hrs by Celltitre-Glo luminescent assay; type: functional, cell-based; settings: BaF3, 72 h
[8] = test system: BaF3; assay: Antiproliferative activity against crizotinib resistant mouse BaF3 cells expressing EML4 fused ALK I1171T mutant assessed as reduction in cell viability incubated for 72 hrs by Celltitre-Glo luminescent assay; type: functional, cell-based; settings: BaF3, 72 h
[9] = test system: BaF3; assay: Antiproliferative activity against crizotinib resistant mouse BaF3 cells expressing EML4 fused ALK I1171N mutant assessed as reduction in cell viability incubated for 72 hrs by Celltitre-Glo luminescent assay; type: functional, cell-based; settings: BaF3, 72 h
[10] = test system: BaF3; assay: Antiproliferative activity against mouse BaF3 cells harbouring SLC34A2-ROS1-L2026M mutant assessed as reduction in cell viability incubated for 72 hrs by Celltitre-Glo luminescent assay; type: functional, cell-based; settings: BaF3, 72 h
[11] = test system: BaF3; assay: Antiproliferative activity against mouse BaF3 cells harbouring CD74-ROS1-S1986Y mutant assessed as reduction in cell viability incubated for 72 hrs by Celltitre-Glo luminescent assay; type: functional, cell-based; settings: BaF3, 72 h
[12] = test system: BaF3; assay: Antiproliferative activity against mouse BaF3 cells harbouring CD74-ROS1-S1986F mutant assessed as reduction in cell viability incubated for 72 hrs by Celltitre-Glo luminescent assay; type: functional, cell-based; settings: BaF3, 72 h
[13] = test system: BaF3; assay: Antiproliferative activity against mouse BaF3 cells harbouring CD74-ROS1-D2033N mutant assessed as reduction in cell viability incubated for 72 hrs by Celltitre-Glo luminescent assay; type: functional, cell-based; settings: BaF3, 72 h
[14] = cells; settings: Mus musculus, Ba/F3 EML4-ALK, 72 h
[15] = cells; settings: Mus musculus, BaF3, 72 h
[16] = cells; settings: Mus musculus, Ba/F3 EML4-ALK-G1202R, 72 h
[17] = cells; settings: Mus musculus, BaF3, 72 h; remark: listed apart in the source
[18] = cells; settings: Mus musculus, BaF3, 72 h; remark: listed apart in the source
[19] = biological target: ALK tyrosine kinase receptor (Homo sapiens, UniProt Q9UM73, C1156Y)
Sequence of ALK tyrosine kinase receptor (Homo sapiens, UniProt Q9UM73, C1156Y) (Q9UM73 19-1620 C1156Y limits assumed): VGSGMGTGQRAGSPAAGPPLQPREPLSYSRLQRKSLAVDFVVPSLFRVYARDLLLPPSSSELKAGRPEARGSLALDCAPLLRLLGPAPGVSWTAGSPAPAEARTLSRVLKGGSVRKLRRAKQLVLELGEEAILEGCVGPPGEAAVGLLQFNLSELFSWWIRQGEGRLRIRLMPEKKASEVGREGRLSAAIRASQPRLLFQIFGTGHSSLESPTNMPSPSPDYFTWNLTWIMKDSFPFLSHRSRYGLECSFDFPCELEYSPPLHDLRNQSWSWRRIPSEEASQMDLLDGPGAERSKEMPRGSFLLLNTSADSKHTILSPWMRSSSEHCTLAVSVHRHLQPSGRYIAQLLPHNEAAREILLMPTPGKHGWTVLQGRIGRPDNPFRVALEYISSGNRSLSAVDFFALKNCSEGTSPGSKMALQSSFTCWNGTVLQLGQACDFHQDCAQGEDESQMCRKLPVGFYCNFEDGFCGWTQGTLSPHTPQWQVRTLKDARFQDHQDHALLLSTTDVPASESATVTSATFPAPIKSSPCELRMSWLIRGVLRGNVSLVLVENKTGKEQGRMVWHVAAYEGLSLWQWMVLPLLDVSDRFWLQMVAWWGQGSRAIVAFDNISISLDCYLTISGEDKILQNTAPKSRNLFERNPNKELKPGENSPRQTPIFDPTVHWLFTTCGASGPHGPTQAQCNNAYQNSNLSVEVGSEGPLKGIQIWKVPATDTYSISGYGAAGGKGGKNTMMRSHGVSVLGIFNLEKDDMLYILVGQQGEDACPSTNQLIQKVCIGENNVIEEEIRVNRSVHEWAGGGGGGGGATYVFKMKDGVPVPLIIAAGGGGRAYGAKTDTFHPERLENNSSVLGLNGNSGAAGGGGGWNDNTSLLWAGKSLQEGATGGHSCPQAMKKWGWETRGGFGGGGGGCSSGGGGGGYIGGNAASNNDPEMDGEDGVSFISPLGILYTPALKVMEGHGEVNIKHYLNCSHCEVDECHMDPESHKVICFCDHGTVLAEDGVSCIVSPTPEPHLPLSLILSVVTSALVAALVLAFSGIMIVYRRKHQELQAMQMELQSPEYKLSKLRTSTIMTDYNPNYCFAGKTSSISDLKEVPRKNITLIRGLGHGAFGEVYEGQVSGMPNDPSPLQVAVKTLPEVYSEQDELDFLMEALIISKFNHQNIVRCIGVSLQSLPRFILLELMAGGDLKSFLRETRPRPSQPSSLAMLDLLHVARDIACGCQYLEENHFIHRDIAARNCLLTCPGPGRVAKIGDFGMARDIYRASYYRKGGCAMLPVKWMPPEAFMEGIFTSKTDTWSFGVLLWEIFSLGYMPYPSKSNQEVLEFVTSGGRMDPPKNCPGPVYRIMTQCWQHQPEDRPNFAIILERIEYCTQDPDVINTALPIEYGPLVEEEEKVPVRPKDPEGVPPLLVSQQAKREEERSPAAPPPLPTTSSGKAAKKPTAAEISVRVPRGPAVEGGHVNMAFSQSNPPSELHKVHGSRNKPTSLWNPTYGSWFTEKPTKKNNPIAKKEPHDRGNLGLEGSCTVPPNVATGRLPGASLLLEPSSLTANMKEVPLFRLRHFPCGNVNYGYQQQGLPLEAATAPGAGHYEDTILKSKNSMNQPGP

[20] = biological target: T1, ALK tyrosine kinase receptor (Homo sapiens, UniProt Q9UM73)
Target sequence in this assay (Q9UM73 whole entry): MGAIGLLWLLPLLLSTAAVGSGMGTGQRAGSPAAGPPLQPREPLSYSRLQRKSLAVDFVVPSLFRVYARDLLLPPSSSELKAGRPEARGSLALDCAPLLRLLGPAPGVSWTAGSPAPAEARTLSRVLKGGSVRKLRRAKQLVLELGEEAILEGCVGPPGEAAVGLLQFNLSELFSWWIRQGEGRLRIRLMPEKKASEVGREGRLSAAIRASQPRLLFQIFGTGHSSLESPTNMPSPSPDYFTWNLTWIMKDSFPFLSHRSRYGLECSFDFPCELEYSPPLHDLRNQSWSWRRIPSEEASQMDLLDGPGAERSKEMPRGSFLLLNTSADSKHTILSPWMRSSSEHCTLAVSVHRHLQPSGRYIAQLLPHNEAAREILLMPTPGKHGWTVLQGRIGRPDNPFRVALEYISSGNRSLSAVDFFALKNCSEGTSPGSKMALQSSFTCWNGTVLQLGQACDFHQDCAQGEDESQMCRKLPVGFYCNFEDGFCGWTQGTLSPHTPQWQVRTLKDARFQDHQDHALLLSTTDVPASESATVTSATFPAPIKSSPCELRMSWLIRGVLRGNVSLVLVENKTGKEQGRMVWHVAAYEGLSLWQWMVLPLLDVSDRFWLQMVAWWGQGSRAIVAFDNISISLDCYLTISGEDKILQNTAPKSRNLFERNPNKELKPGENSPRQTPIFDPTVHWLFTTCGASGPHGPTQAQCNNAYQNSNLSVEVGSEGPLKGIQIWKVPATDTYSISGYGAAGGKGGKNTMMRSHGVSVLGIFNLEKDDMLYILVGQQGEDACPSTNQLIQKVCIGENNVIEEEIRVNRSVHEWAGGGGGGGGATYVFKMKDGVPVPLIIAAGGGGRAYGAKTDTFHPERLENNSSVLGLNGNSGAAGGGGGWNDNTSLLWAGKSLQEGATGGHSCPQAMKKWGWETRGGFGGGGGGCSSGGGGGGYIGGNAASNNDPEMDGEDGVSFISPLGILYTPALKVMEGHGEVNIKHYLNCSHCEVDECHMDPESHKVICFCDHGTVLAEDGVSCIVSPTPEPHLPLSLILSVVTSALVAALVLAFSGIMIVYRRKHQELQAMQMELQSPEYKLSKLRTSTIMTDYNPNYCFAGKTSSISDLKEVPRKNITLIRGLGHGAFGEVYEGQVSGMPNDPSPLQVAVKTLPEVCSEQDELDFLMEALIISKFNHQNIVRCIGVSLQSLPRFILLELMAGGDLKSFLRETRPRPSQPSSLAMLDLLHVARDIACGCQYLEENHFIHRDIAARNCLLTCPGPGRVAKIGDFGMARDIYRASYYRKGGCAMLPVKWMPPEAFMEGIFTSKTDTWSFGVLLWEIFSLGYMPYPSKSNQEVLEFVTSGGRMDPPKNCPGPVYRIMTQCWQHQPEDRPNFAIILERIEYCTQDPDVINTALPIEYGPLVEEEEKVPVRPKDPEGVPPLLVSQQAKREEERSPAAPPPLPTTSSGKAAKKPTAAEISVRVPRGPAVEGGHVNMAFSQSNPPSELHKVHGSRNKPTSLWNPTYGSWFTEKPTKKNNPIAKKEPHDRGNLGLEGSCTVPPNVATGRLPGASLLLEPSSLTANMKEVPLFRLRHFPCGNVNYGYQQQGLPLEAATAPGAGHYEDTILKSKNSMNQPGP

[21] = Clearance in Balb/c nude mouse at 1 mg/kg, iv; type: ADME, organism-based; settings: in vivo
[22] = Volume of distribution at steady state in Balb/c nude mouse at 1 mg/kg, iv; type: ADME, organism-based; settings: in vivo, read-out: Vdss
[23] = Half-life in Balb/c nude mouse at 1 mg/kg, iv; type: ADME, organism-based; settings: in vivo
[24] = Cmax in Balb/c nude mouse at 5 mg/kg, po; type: ADME, organism-based; parameters: dose 5 mg/kg, route po; settings: in vivo
[25] = AUC (0 to last) in Balb/c nude mouse at 5 mg/kg, po; type: ADME, organism-based; parameters: time 0 - last, dose 5 mg/kg, route po; settings: in vivo
[26] = Oral bioavailability in Balb/c nude mouse at 5 mg/kg; type: ADME, organism-based; settings: in vivo
[27] = Cmax in Sprague-Dawley rat at 8 mg/kg, po; type: ADME, organism-based; parameters: dose 8 mg/kg, route po; settings: in vivo
[28] = AUC (0 to last) in Sprague-Dawley rat at 8 mg/kg, po; type: ADME, organism-based; parameters: time 0 - last, dose 8 mg/kg, route po; settings: in vivo
[29] = Cmax in Cynomolgus monkey at 2 mg/kg, po; type: ADME, organism-based, Macaca fascicularis; parameters: dose 2 mg/kg, route po; settings: in vivo
[30] = AUC (0 to last) in Cynomolgus monkey at 2 mg/kg, po; type: ADME, organism-based, Macaca fascicularis; parameters: time 0 - last, dose 2 mg/kg, route po; settings: in vivo
[31] = Clearance in Beagle dog at 1 mg/kg, iv; type: ADME, organism-based, Canis lupus familiaris; settings: in vivo
[32] = Volume of distribution at steady state in Beagle dog at 1 mg/kg, iv; type: ADME, organism-based, Canis lupus familiaris; settings: in vivo, read-out: Vdss
[33] = Half-life in Beagle dog at 1 mg/kg, iv; type: ADME, organism-based, Canis lupus familiaris; settings: in vivo
[34] = biological target: T1, ALK tyrosine kinase receptor; assay: Inhibition of ALK phosphorylation in human NCI-H3122 cells by Western blotting analysis; type: cell-based; settings: DDE = dose-dependent effect
Target sequence in this assay (Q9UM73 19-1620 limits assumed): as the sequence (Q9UM73 19-1620 C1156Y limits assumed) above, with Y1138C counted along it

[35] = test system: NCI-H3122; assay: Inhibition of ERK phosphorylation in human NCI-H3122 cells by Western blotting analysis; type: cell-based; settings: DDE = dose-dependent effect
[36] = biological target: T2, Signal transducer and activator of transcription 5A (Homo sapiens) (UniProt P42229); assay: Inhibition of STAT5 phosphorylation in human NCI-H3122 cells by Western blotting analysis; type: cell-based; settings: DDE = dose-dependent effect
T2 sequence (whole entry): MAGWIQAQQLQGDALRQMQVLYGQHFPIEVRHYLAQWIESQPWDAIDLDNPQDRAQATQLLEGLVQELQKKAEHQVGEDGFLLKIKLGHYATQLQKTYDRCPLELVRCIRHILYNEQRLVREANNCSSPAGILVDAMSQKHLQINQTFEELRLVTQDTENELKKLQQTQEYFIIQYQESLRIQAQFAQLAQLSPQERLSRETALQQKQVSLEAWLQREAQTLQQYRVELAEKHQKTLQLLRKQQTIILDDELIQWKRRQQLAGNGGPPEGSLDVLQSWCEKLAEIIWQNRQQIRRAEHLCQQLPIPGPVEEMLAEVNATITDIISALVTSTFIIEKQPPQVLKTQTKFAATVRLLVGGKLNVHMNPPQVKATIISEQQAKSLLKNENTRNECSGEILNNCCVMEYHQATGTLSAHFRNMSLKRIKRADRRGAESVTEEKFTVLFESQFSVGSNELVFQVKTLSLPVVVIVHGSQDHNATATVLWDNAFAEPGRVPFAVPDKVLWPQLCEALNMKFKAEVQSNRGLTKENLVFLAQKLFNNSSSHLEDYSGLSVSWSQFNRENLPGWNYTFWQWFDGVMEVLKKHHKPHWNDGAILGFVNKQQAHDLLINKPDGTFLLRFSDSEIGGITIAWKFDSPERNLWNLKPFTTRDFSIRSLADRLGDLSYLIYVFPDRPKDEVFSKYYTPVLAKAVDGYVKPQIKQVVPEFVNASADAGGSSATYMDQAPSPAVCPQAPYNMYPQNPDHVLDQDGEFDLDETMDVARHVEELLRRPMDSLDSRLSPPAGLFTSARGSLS

[37] = test system: NCI-H3122; assay: Inhibition of AKT phosphorylation in human NCI-H3122 cells at highest concentration by Western blotting analysis; type: cell-based
[38] = test system: LU-01-0319; assay: Antitumor activity against crizotinib-resistant patient derived LU-01-0319 cells xenografted in mouse assessed as tumor regression at 2.5 mg/kg, po; type: functional, organism-based; settings: Homo sapiens
[39] = test system: LU-01-0319R; assay: Antitumor activity against crizotinib-resistant patient derived LU-01-0319R cells xenografted in nude mouse at 2.5 to 10 mg/kg, po dosed once daily for 21 days; type: functional, organism-based; settings: Homo sapiens, dose 2.5-10 mg/kg, time 21.0 day
[40] = test system: LU-01-0319R; assay: Antitumor activity against crizotinib-resistant patient derived LU-01-0319R cells xenografted in nude mouse assessed as tumor regression at 10 mg/kg, po dosed once daily for 21 days; type: functional, organism-based; settings: Homo sapiens, time 21.0 day
[41] = Toxicity in nude mouse xenografted with crizotinib-resistant patient derived LU-01-0319R cells assessed as tolerance at 2.5 to 10 mg/kg, po dosed once daily for 21 days; type: organism-based; settings: in vivo, 504 h, dose 2.5-10 mg/kg, time 21 day
[42] = Toxicity in nude mouse xenografted with crizotinib-resistant patient derived LU-01-0319R cells assessed as body weight change at 2.5 to 10 mg/kg, po dosed once daily for 21 days; type: organism-based; settings: in vivo, 504 h, dose 2.5-10 mg/kg, time 21 day
[43] = test system: KARPAS-299; assay: cells; settings: Homo sapiens
Description: Antiproliferative activity against human KARPAS-299 cells harbouring wild type ALK assessed as reduction in cell viability by Celltitre-Glo luminescent assay

[44] = test system: BaF3; assay: cells; settings: Mus musculus
Description: Antiproliferative activity against mouse BaF3 cells harbouring ALK wild type assessed as reduction in cell viability by Celltitre-Glo luminescent assay

[45] = test system: BaF3; assay: cells; settings: Mus musculus; remark: listed apart in the source
Description: Antiproliferative activity against mouse BaF3 cells harbouring ALK L1196M mutant assessed as reduction in cell viability by Celltitre-Glo luminescent assay

[46] = test system: BaF3; assay: cells; settings: Mus musculus; remark: listed apart in the source
Description: Antiproliferative activity against mouse BaF3 cells harbouring ALK C1156Y mutant assessed as reduction in cell viability by Celltitre-Glo luminescent assay

Structure (SMILES): COc1cc(N2CCC(N3CCN(C)CC3)CC2)ccc1Nc1ncc(Cl)c(Nc2ccccc2P(C)(C)=O)n1 [BRIGATINIB]
- IC50 [1]: 98 nM
- IC50 [2]: 93 nM
- IC50 [3]: 35 nM
- IC50 [4]: 47 nM
- IC50 [5]: 10 nM
- IC50 [6]: 10 nM
- IC50 [7]: 1 nM
- IC50 [8]: 19 nM
- IC50 [9]: 35 nM
- IC50 [10]: 48 nM
- IC50 [11]: 12 nM
- IC50 [12]: 20 nM
- IC50 [13]: 36 nM
- IC50 [14]: 25 nM
- IC50 [15]: 31 nM
- IC50 [16]: 340 nM
- IC50 [17]: 31 nM
- IC50 [18]: 22 nM

Structure (SMILES): COc1cc(N2CCC3(CCN(C)CC3)CC2)ccc1Nc1ncc(Cl)c(Nc2ccccc2P(C)(C)=O)n1 [IRUPLINALKIB]
- IC50 [19]: 1.8 nM
- IC50 [20]: 1.6 nM
- IC50 [1]: 36 nM
- IC50 [2]: 32 nM
- IC50 ([3]; read-out: IC50): 12 nM
- IC50 [4]: 22 nM
- IC50 [5]: 8 nM
- IC50 [6]: 4 nM
- IC50 [7]: 1 nM
- IC50 [8]: 11 nM
- IC50 ([9]; read-out: IC50): 17 nM
- IC50 [10]: 12 nM
- IC50 [11]: 15 nM
- IC50 [12]: 22 nM
- IC50 [13]: 33 nM
- clearance [21]: 22.4 mL/min/kg
- Vd [22]: 2.33 L/kg
- half-life [23]: 1.38 h
- Cmax [24]: 741 ng/mL
- AUC(0-t) [25]: 2450 ng·h/mL
- bioavailability [26]: 66.2%
- Cmax [27]: 499 ng/mL
- AUC(0-t) [28]: 4000 ng·h/mL
- Cmax [29]: 92.2 ng/mL
- AUC(0-t) [30]: 598 ng·h/mL
- clearance [31]: 8.6 mL/min/kg
- Vd [32]: 4.6 L/kg
- half-life [33]: 6.47 h
- inhibition [34]: Dde
- inhibition [35]: Dde
- inhibition [36]: Dde
- inhibition [37]: Active
- Activity [38]: Active
- Activity [39]: Active
- Activity [40]: Active
- Activity [41]: Non-Toxic
- Activity [42]: Non-Toxic
- IC50 [43]: 14.5 nM
- IC50 [44]: 13 nM
- IC50 [45]: 24 nM
- IC50 [46]: 21 nM
- IC50 [14]: 21 nM
- IC50 [15]: 36 nM
- IC50 [16]: 96 nM
- IC50 [17]: 36 nM
- IC50 [18]: 11 nM
